Values quoted from earlier work, collected in patent US8716482B2, “Substituted aminopiperidines as dipeptidyl peptidase-IV inhibitors for the treatment of diabetes” (Merck Sharp & Dohme Corp., priority 2009, dated 2014).

Columns and labels:
[1] = tested on: hematopoiesis; conditions: mouse, cyclophosphamide-induced neutropenia
[2] = target: DPP-4 (Homo sapiens (Human), UniProt P27487)
Chain of DPP-4 (P27487 39-766, species assumed): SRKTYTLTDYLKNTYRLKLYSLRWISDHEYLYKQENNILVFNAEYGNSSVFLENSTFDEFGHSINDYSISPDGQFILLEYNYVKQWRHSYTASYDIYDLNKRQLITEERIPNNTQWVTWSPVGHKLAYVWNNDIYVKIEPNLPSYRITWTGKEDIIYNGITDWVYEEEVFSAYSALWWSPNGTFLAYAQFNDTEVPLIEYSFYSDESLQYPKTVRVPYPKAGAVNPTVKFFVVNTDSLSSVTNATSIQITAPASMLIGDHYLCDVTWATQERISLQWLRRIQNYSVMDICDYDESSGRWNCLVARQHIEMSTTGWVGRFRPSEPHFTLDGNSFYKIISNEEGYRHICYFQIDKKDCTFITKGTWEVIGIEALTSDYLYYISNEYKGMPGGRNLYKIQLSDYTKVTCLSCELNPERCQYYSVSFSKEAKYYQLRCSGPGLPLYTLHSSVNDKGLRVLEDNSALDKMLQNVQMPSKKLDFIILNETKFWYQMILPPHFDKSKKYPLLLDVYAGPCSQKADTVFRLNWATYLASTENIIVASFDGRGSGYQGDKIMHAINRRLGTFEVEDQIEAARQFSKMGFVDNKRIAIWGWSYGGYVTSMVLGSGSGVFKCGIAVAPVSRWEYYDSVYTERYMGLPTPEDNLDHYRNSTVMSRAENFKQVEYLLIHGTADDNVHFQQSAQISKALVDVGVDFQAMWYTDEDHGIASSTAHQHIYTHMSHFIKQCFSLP

Molecule | hematopoiesis [1] | degradation of GRF in plasma to GRF[3-44] [2]
CC(C)[C@H](N)C(=O)N1CCC[C@H]1B(O)O [Val-Boro-Pro] | stimulated hematopoiesis | 
diprotin A |  | prevented
